This is an account of results in patent publication US7022721B1, “Method and composition for rejuvenating cells, tissues, organs, hair and nails” (priority 2001, dated 2006).

For data set [1], the system named is Non-enzymatically browned BSA (AGE-BSA) coupled to Collagen Type-I coated plates. Put plainly: Assay of Uncoupling Activity on non-enzymatically browned BSA coupled to collagen coated plates (ELISA). As to conditions: for % uncoupling at 5 mM, 1 day: naphthothiazolium test compounds; for % uncoupling at 10 mM, 2 days / % uncoupling at 20 mM, 1 day: sugar-mediated coupling of albumen to collagen. The class given is biochemical. The method, then:
Assay of Uncoupling Activity on Non-Enzymattically Browned BSA Coupled to Collagen Coated Plates
Equipment, Reagents, and Other Materials
Mix equal volume of BSA (50 mg/ml in 1×PBS) and glucose (0.5 M in PBS); keep the solution (after filtered through a 0.22 µm filter and placed in a capped bottle) in a 37° C. incubator for 5 weeks.
Remove an aliquot of the solution and dialyze against 500-fold volume of PBS, with 4 changes of buffer within 2 days. Collect the solution, as AGE-BSA, from dialysis bag and determine the protein concentration. […] During this hour, • Rinse the plate washer with autoclaved dH2O and then flush 3 times with PBS-Tween washing buffer containing 0.05% of Tween-20. • Dilute AGE-BSA in 1×PBS to 0.03 g/l. […] (Record the hours of incubation.) • In the meantime, run maintenance program (Overnight rinse/soak) on the plate washer using autoclaved distilled H2O. • After incubation, flush the plate washer 3 times with PBS-Tween washing buffer. • Wash the plate 4 times with 1×PBS buffers containing 0.2% Tween-20. • Wash 6 more times with PBS-0.05% Tween washing buffer in two directions, 3 times/direction. • Prepare 1:8000 dilution (in 1×PBS) of anti-BSA antibody (rabbit IgG-HRP) • Add 50 1 of diluted antibody to the wells, incubate at room temperature for 30 min. • Wash 8 times with PBS-0.05% Tween washing buffer in two directions, 4 times/direction. • Add 100 1 of TMB substrate solution to the wells; incubate at RT for 15 min. • Stop the reaction by adding 100 1 of 2 M H2SO4. • Read absorbance at 450 nm in an ELISA plate reader. • Plot and analyze data.
A general note: ELISA stands for enzyme-linked immunosorbent assay.

Data set [2] can be described thus: Hair stress vs. strain relationship (stiffness) before and after treatment. The text has this: Methodology for Determination of Hair Stress vs. Strain Relationship (Stiffness).
The distensibility (i.e, elasticity, rigidity, shear, tensile strength, compression, etc.) of hair, nails, tendons, etc. can be easily determined using widely available commercial devices, such as manufactured by Instron. Alternatively, other test methods known to a practitioner of the art may be employed.
The test assay for determining whether hair has been “rejuvenated” for the present invention is the following. Individual scalp hairs were cemented into the ends of glass capillary tubes such that several centimeters of the shaft protruded from the end. This hair was then trimmed to extend 18 mm from the end of the tube. […] Thus, this determination of stress vs strain of bending assessed elasticity, compressibility, and shear of each hair shaft. Each hair served as its own control, with baseline and post-treatment properties assessed and directly compared.
A 1 mm thick plate with a 0.5 mm diameter hole drilled through was attached to the surface of an isometric strain gauge. […] The force required to bend each hair a specified distance was determined over a wide range of displacements. […] For purposes of the present invention, the term “rejuvenated” hair shall mean an improvement of at least 20% in the measured values of the treated hair, toward the values seen in young, undamaged hair (i.e. healthy human). […]

Values joined by “and” are separate entries in the source; they are usually repeats but may differ in a detail not shown here. Equal entries are not always repeated. Structures can show the parent of a compound that is named as a salt.

What is called melting point is the temperature, or range, at which the solid turns liquid. Compound `N#CCc1cccc[n+]1CC(=O)N1CCCC1.[Cl-]` registered a melting point of 130 to 132 °C.

With `Cc1c(O)c2ccccc2c2c1sc(=NC(C)C)n2CCCN(C)C.Cl.Cl` [1,2-dihydro-1-[3-(dimethylamino)propyl]-4-methyl-2-[(1-methylethyl)imino]naphtho[1,2-d]thiazol-5-ol dihydrochloride], in data set [1] (1 day), the “% uncoupling at 5 mM, 1 day” value is reported as 19%. Turning to `O=C(Cn1cc[n+](CC(=O)c2ccccc2)c1)c1ccccc1.[Br-]` [1,3-bis(2-oxo-2-phenylethyl)imidazolium bromide], the “% uncoupling, 1 day (footnote b: at 10 mM)” value in data set [1] (10 mM, 1 day) is 25^b %. In the case of `N#CCc1cccc[n+]1CC(=O)N1CCCC1.[Br-]` [1-[2-(1-pyrrolidinyl)-2-oxoethyl]-2-(cyanomethyl)pyridinium bromide], the “% uncoupling at 10 mM, 2 days” value in data set [1] (10 mM) is on record as 68%.

As for `CCN=c1sc2c(C)c(O)c3ccccc3c2n1CC.Cl` [1-ethyl-2-(ethylimino)-1,2-dihydro-4-methylnaphtho[1,2-d]thiazol-5-ol monohydrochloride], the “% uncoupling at 5 mM, 1 day” value in data set [1] (1 day, monohydrochloride) was 59% and 58%. Further, the “stiffness of hair after treatment” value in data set [2] (FIG. 1) was “decreases the stiffness of hair”. Besides, the “resulting stress less than before treatment (hair stiffness)” value in data set [2] (hair immersed in 10 mM solution for 15 minutes, strain greater than about 0.06) is listed as “about 50%”. As to `Cc1sc2[n+](c1C)C=C(c1ccccc1)OC2C.[Br-]` (stereo not shown) [2,3,8-Trimethyl-6-phenyl-8H-thiazolo[2,3-c](1,4)oxazin-4-ium bromide], in data set [1] (1 day), the “% uncoupling at 20 mM, 1 day” value was determined as 34%. Regarding `Cc1csc(C)[n+]1CC(=O)c1ccccc1.[Br-]` [2,4-Dimethyl-3-(2-oxo-2-phenylethyl)thiazolium bromide], the “% uncoupling at 10 mM, 2 days” value in data set [1] (10 mM) was 36%. Further, the “% uncoupling at 20 mM, 1 day” value in data set [1] (1 day) is 51%. As for `CC(O)c1scc[n+]1CC(=O)N1CCCC1.[Cl-]` (stereo not shown) [2-(1-hydroxyethyl)-3-[2-oxo-2-(1-pyrrolidinyl)ethyl]thiazolium chloride], in data set [1] (10 mM), the “% uncoupling at 10 mM, 2 days” value is recorded as 32%. On to `Cc1c(O)c2ccccc2c2c1sc(NC1CCCCC1)[n+]2CCCN1CCN(C)CC1.[Cl-]` [2-(Cyclohexylimino)-1,2-dihydro-4-methyl-1-[3-(4-methyl-1-piperazinyl)propyl]naphtho[1,2-d]thiazol-5-ol trihydrochloride], for which, in data set [1] (1 day), the “% uncoupling at 5 mM, 1 day” value worked out at 21%.

In the case of `Cc1c(O)c2ccccc2c2c1sc(NC1CCCCC1)[n+]2CCCN1CCOCC1` [2-(Cyclohexylimino)-1,2-dihydro-4-methyl-1-[3-(4-morpholino)propyl]naphtho[1,2-d]thiazol-5-ol dihydrochloride], the “% uncoupling at 5 mM, 1 day” value in data set [1] (1 day) amounted to 22%. `CCc1scc(C)[n+]1CC(=O)c1ccccc1.[Br-]` [2-Ethyl-4-methyl-3-(2-oxo-2-phenylethyl)thiazolium bromide]: the “% uncoupling at 20 mM, 1 day” value in data set [1] (1 day) is given as 57%. Consider `Cc1nc2c(c[n+]1CC(=O)c1ccccc1)CNC(=O)N2.[Br-]` [2-Methyl-3-(2-oxo-2-phenylethyl)-7-oxo-5,6,7,8-tetrahydropyrimidino [4,5-d]pyrimidin-3-ium bromide], for which the “% uncoupling, 1 day (footnote a: at 30 mM)” value in data set [1] (1 day) was 22^a %. For `O=C(C[n+]1ccccc1Cc1ccccc1)c1ccccc1.[Br-]` [2-benzyl-1-(2-oxo-2-phenylethyl)pyridinium bromide], the “% uncoupling at 20 mM, 1 day” value in data set [1] (1 day) came to 54%. Same read-out and setting: then `CC(OC(=O)c1ccccc1)c1scc[n+]1CC(=O)c1ccccc1.[Br-]` (stereo not shown) [3-(2-Oxo-2-phenylethyl)-2-(1-benzoyloxyethyl)thiazolium bromide], with 68%. As for `CC(O)c1scc[n+]1CC(=O)c1ccccc1.[Br-]` (stereo not shown) [3-(2-Oxo-2-phenylethyl)-2-(1-hydroxyethyl)thiazolium bromide], the “% uncoupling at 10 mM, 2 days” value in data set [1] (10 mM) came out at 54%. As for `CC(=O)OC(C)c1scc[n+]1CC(=O)N1CCCC1.[Br-]` (stereo not shown) [3-[2-Oxo-2-(1-pyrrolidinyl)ethyl]-2-(1-acetoxyethyl)thiazolium bromide], in data set [1] (1 day), the “% uncoupling at 20 mM, 1 day” value came to 46%. For the compound `CC(=O)OC(C)c1scc[n+]1CC(=O)c1ccccc1.[Br-]` (stereo not shown) [3-[2-Oxo-2-phenylethyl]-2-(1-acetoxyethyl)thiazolium bromide], in data set [1] (1 day), the “% uncoupling at 20 mM, 1 day” value is 52%. For the compound `CC(O)c1scc[n+]1CC(=O)O` (stereo not shown) [3-carboxymethyl-2-(1-hydroxyethyl)thiazole], the “% uncoupling at 20 mM, 1 day” value in data set [1] (1 day) is given as 47%. For `Cc1sc[n+](CC(=O)c2ccccc2)c1C.[Cl-]` [4,5-Dimethyl-3-(2-oxo-2-phenylethyl)thiazolium chloride, reference compound], the “% uncoupling at 10 mM, 2 days” value in data set [1] (10 mM) amounted to 52%. For the same compound, the “% uncoupling at 20 mM, 1 day” value in data set [1] (1 day) came to 39%.

Compound `Cc1sc(C(C)O)[n+](CC(=O)c2ccccc2)c1C.[Br-]` (stereo not shown) [4,5-dimethyl-2-(1-hydroxyethyl)-3-(2-oxo-2-phenylethyl)thiazolium bromide] had a melting point of 174 to 176 °C. In addition, the “% uncoupling at 20 mM, 1 day” value in data set [1] (1 day) turned out to be 45%. With `Cc1c(O)c2ccccc2c2nc(NCCCN3CCOCC3)sc12` [4-Methyl-2-[[3-(4-morpholino)propyl]amino]naphtho[1,2-d]thiazol-5-ol dihydrochloride], in data set [1] (1 day), the “% uncoupling at 5 mM, 1 day” value worked out at 36%. `CC1OC(=O)C[n+]2ccsc21.[Br-]` (stereo not shown) [5,6-Dihydro-8-methyl-6-oxo-8H-thiazolo[2,3-c](1,4)oxazin-4-ium bromide]: the melting point was in the range of 214 to 215.5 °C. For the same compound, the “% uncoupling, 1 day (footnote a: at 30 mM)” value in data set [1] (1 day) was 36^a %.
